Columns and labels:
Type in all cases: cell-based
MMP-9 [1] = assay: Secretion of MMP-9 by BT001 glioma cells, gelatin zymogram; settings: 48 hours
Protocol: Assays were performed to determine the effect of Cpd. 5 (synthesis described in Example 1) on the secretion of MMP-9 by the BT001 glioma cell line. The BT001 cell line was established as follows from cells obtained after surgery. The excised tissue was treated briefly with a protease cocktail, and the resulting cell suspension was cultured in IMDM supplemented with 10% FBS. Expanded cells were then frozen for future use.
A fresh 50 mM stock solution of Cpd. 5 was prepared in ethanol and warmed to 37° C. Aliquots of the stock solution were removed and diluted in IMDM supplemented with 0.1% FBS, insulin-transferrin-sodium selenite (ITSS) solution, and penicillin/streptomycin solution to prepare experimental culture media (final concentrations of Cpd. 5 ranged from 10-100 μM). Ethanol in the culture medium was used as diluent control.
The BT001 cells were cultured in 25 cm^2 flasks in IMDM containing 10% FBS at 37° C. and 5% CO2. When cells reach 70-80% confluence, they were washed two times with IMDM that had been warmed to 37° C. in a water bath. The experimental culture media containing Cpd. 5 were then added to the flasks (4.5 ml per flask), and the flasks were incubated at 37° C. and 5% CO2 for 48 hours. The conditioned media were then removed from the cells, and cellular debris was removed by centrifugation at 2000 rpm for 10 minutes. The supernatants were then transferred to sterile tubes and stored at −20° C.
Gelatin zymograms were used to evaluate MMP release and activity in the samples. Precast 10% polyacrylamide gels impregnated with gelatin were obtained from Invitrogen, Carlsbad, Calif. Ten μL, of each of the thawed conditioned media were mixed with an equal volume of SDS-PAGE loading dye without reducing agent (obtained from Invitrogen, Carlsbad, Calif.), applied to the gels and separated at 150 volts for 1 hour. The gels were then processed following the manufacturer's recommended protocol (includes renaturing the gels for one hour and incubating overnight at 37° C. with gentle shaking for protease digestion of gelatin). Visualization of MMP activity was done by staining the gel with Invitrogen Simple Safe blue commassie solution and photographing the gel on a Kodak Image station. The intensity of the bands in the photos was determined using bundled Kodak software. Percent decrease was determined with the following formula: (Intensity of diluent control)−(Intensity of treatment)/(Intensity of diluent control)×100. The data presented in Table 4 are the means of three or four replicate experiments.

MMP-9 [2] = assay: Release of MMP-9 from STTG astrocytoma cells, gelatin zymogram; settings: data not shown
MMP-9 [3] = assay: Release of MMP-9 from primary human microglial cells, gelatin zymogram; settings: supernatants concentrated 10×
endothelial cells = assay: Endothelial cell tube formation; settings: 50 μM or 100 μM
Protocol: When endothelial cells are cultured on extracellular matrix protein gels in the presence of angiogenic signals, they arrange themselves into structures loosely resembling capillary blood vessels (“tube formation”). Cpd.

COC(=O)C(c1ccc(-c2ccccc2)cc1)C1NC(=O)CNC1=O (stereo not shown) [Cpd. 5, biphenyl-4-yl-(3,6-dioxo-piperazin-2-yl)-acetic acid methyl ester]
MEAN % DECREASE ACTIVE MMP-9 (MMP-9 [1]; BT001, 10 μM): 49.55 ± 21.49%
MEAN % DECREASE PRO-MMP-9 (MMP-9 [1]; BT001, 10 μM): 6.89 ± 20.51%
MEAN % DECREASE ACTIVE MMP-9 (MMP-9 [1]; BT001, 50 μM): 40.51 ± 9.73%
MEAN % DECREASE PRO-MMP-9 (MMP-9 [1]; BT001, 50 μM): 36.13 ± 20.53%
MEAN % DECREASE ACTIVE MMP-9 (MMP-9 [1]; BT001, 100 μM): 71.08 ± 17.47%
MEAN % DECREASE PRO-MMP-9 (MMP-9 [1]; BT001, 100 μM): 45.55 ± 20.50%
effect on the release of MMP-9 from the STTG cells (MMP-9 [2]): no effect
inhibition at 100 µM (MMP-9 [3]; 100 μM, read-out: inhibition of the release of active MMP-9): 35.9%
inhibition of the release of pro-MMP-9 (MMP-9 [3]; data not shown): did not inhibit
effect on tube formation (endothelial cells): no observable effect

From US8871772B2, “Therapeutic methods and compounds” (Ampio Pharmaceuticals, Inc., priority 2008, dated 2014)
